Reference: patent publication US10398315B2, “Method of imaging living tissue” (Agency for Science, Technology and Research, priority 2013, dated 2019)
Entries after “also recorded” stand apart in the source; their conditions may differ.

Columns and labels:
[1] = MSOT phantom measurement of photoacoustic signal; type: physicochemical; conditions: 680-900 nm; for Relative PA Quantum yield (ϕP): gradient of unmixed PA signal vs concentration in phantom, arbitrary ratios; for PA signal / photoacoustic activity in phantoms: phantom, compared among the 5 photosensitizers
Method: In order to verify the PA activity of the photosensitizers under controlled conditions, phantom measurements for all the contrast agents were performed, in the 680-900 nm wavelength range, each at 5 different concentrations.
All phantom and in vivo mouse imaging experiments were performed using a real-time multispectral optacoustic tomographic (MSOT) imaging system; inVision 128 (iThera Medical GmbH, Neuherberg, Germany).
The phantom was made of polyurethane, cylindrical in shape with a diameter of 2 cm, which was specially designed to mimic the shape, size and optical properties of the mouse (iThera Medical GmbH, Neuherberg, Germany). In addition, it had 2 inner cylindrical channels, each with diameter of 3 mm, one for holding the control medium and the other for holding the dissolved contrast agent in the same medium, to measure PA signal compared to the control medium, as shown in FIG. 2A.
Optical excitation was provided by an optical parametric oscillator (OPO) with a tunable near infra-red (NIR) wavelength range from 680 nm to 980 nm, which is in turn pumped by a Q-switched Nd:YAG laser with a pulse duration of 10 ns and repetition rate of 10 Hz. Light was delivered by a fiber bundle divided into 10 output arms to illuminate the sample from multiple angles around the imaging plane.
Photoacoustic (PA) signals were acquired using a 128-element concave transducer array spanning a circular arc of 270°. […] One transverse image slice was acquired from each laser pulse, resulting in a frame-rate of 10 Hz.
During image acquisition, the sample is translated through the transducer array along its axis across the volume ROI, in order to capture the corresponding transverse image slices. Data from multiple transverse slices across the channel portion which contains the probe and control were recorded. Excitation wavelength scan from 680 to 900 nm with an interval of 10 nm for each transverse slice was applied, and the averaged PA signals from 10 frames for each wavelength and position were recorded.
In addition, PA signal for each contrast agent was spectrally unmixed via linear regression. This allowed isolation of the individual contribution of the contrast agent of interest that may be plotted as a function of concentration, which in turn was used to produce a straight line of best fit based on least-squares regression, for each contrast agent.
This gradient was thereby defined by the inventors as a form of relative PA quantum yield (ϕP), a kind of measure of the efficiency of the conversion of light absorption into photoacoustic signal. This is analogous to fluorescence quantum yield (ϕ), which measures efficiency of the conversion of light absorption into fluorescence emission.
The numbers shown are not absolute values, but arbitrary ratios, which reflect the relative PA strength of one compound against that of another.

[2] = literature value; cited from earlier work
[3] = literature value; cited from earlier work; remark: listed apart in the source
[4] = Concentration of drug in the blood calculated from pre-clinical in vivo dose from literature; conditions: assuming volume of blood in mice 2 ml
[5] = UV absorbance measurement 680-900 nm; type: physicochemical; conditions: 680 nm to 900 nm, normalized absorbance, compared among the 5 photosensitizers
Method: In order to obtain information about optical absorption properties of the contrast agents, their wavelength-dependent absorption spectra at known concentrations were measured using a spectrophotometer.
In the experiments carried out, wavelength-dependent absorption spectrum of the contrast agents was measured from 680 nm to 900 nm using a spectrophotometer (DU 730, Beckman Coulter), which in turn was used as an input spectrum for multispectral post-processing of photoacoustic signals.
The spectra were normalized to obtain the concentration-independent normalized absorbance (directly proportional to extinction coefficient) as a function of wavelength for each contrast agent (FIG. 1), based on Beer-Lambert law: A(λ)=ln(Io/I)=ε(λ)cl
where A(λ) is the measured wavelength-dependent absorbance, I0 is the incident light intensity, I is the transmitted light intensity, ε(2) is the wavelength-dependent extinction coefficient of the contrast agent, c is the concentration of the contrast agent and l is the path length of the quartz cuvette (1 cm).

[6] = In vivo longitudinal MSOT monitoring of probe biodistribution in mouse xenograft model; conditions: 0.21 mg/kg tail vein; for time of peak accumulation post injection: tumor site and organs
Method: For in vivo imaging, ultrasound gel was applied on the mouse skin surface, and measurements were recorded in temperature-controlled water for good acoustic coupling. An animal holder with a thin polyethylene membrane was used to prevent direct contact between the mouse and the water.
Xenograft mice models were established by injecting subcutaneously into the right flank of mouse, 0.2 mL of cell suspension containing about 5×10^6 to 6×10^6 MCF-7, a human metastatic breast cancer cell line or OSCC, a human oral squamous carcinoma cell line and matrigel (BD biosciences) in 1:1 volume ratio. When the tumor volume reached a palpable size, the mouse was used for in vivo PA imaging.
ZnPc at a dosage of 0.21 mg/kg was injected via a catheter into the tail vein of a subcutaneous tumor bearing mice anaesthetized under isoflurane and the probe biodistribution or uptake was monitored over time in various organs of liver, spleen, kidneys, intestines and tumor using photoacoustic imaging. Before image acquisition, a volume ROI consisting of transverse slices with a step size of 0.3 mm spanning from the liver to the lower abdomen was selected by manual inspection of live MSOT images, and the 6 laser excitation wavelengths of 680, 700, 750, 800, 850 and 900 nm were selected for correspondence with the major turning points in the absorption spectra of ZnPc, oxy-haemoglobin and deoxy-haemoglobin. Multispectral imaging was then performed with 10 signal averages per wavelength per transverse slice, before injection, during injection and 1, 3, 5, and 24 hr post-injection.
Images were reconstructed using a model-based approach as discussed in Rosenthal, A. et al. (Rosenthal, A. et al., Fast semi-analytical model-based acoustic inversion for quantitative optoacoustic tomography. IEEE Trans. Med. Imag. 29, 1275-1285 (2010)) for offline analysis. After image reconstruction, spectral unmixing was performed to resolve individual components from different chromophores in the system. For each pixel in the image, the method fits the total measured optoacoustic spectrum to the known absorption spectra of the individual chromophores, based on least-squares linear regression.
A volume ROI consisting of transverse slices spanning from the liver to the lower abdomen was scanned, and maximum intensity projections (MIPs) based on these slices were constructed for image analysis.
For the later time points, this background subtraction was not possible, as the animal was removed and placed in the MSOT system repeatedly, with repositioning, in order to avoid overdosage of isoflurane for the entire 24-hour duration.

chlorin e6 [Ce6]
Relative PA Quantum yield (ϕP) [1]: 0.036
Singlet Oxygen Quantum Yield (ϕΔ) [2]: 0.65 [23]
Fluorescence Quantum Yield (ϕF) [3]: 0.19 [23]
Concentration of drug in the blood [4]: 41.90 µM

CN(C)c1ccc2nc3ccc(=[N+](C)C)cc-3sc2c1 [MB, methylene blue]
Relative PA Quantum yield (ϕP) [1]: 0.029
Singlet Oxygen Quantum Yield (ϕΔ) [2]: 0.55 [23]
Fluorescence Quantum Yield (ϕF) [3]: 0.02 [23]
Concentration of drug in the blood [4]: 1337.00 µM

O=C1C(=C2C(O)=CC(=[N+](Cc3ccccc3)Cc3ccccc3)C=C2O)C([O-])=C1c1c(O)cc(N(Cc2ccccc2)Cc2ccccc2)cc1O [Sq, 2,4-bis[4-(N,N-dibenzylamino)-2,6-dihydroxyphenyl]squaraine]
Relative PA Quantum yield (ϕP) [1]: 0.18
Singlet Oxygen Quantum Yield (ϕΔ) [2]: 0.61-0.74 [28]
Fluorescence Quantum Yield (ϕF) [3]: 0.037 [27]
Concentration of drug in the blood [4]: 181.40 µM

[Zn+2].c1ccc2c(c1)-c1nc-2nc2[n-]c(nc3nc([n-]c4nc(n1)-c1ccccc1-4)-c1ccccc1-3)c1ccccc21 [ZnPc, zinc phthalocyanine]
overall absorbance in the NIR region [5]: highest overall absorbance
Relative PA Quantum yield (ϕP) ([1]; listed as zinc pthalocyanine): highest relative photoacoustic quantum yield
PA signal / photoacoustic activity in phantoms [1]: strongest PA signal in phantoms
PA signal / photoacoustic activity in phantoms ([1]; listed as zinc phthalocyanine): highest photoacoustic activity
PA signal / photoacoustic activity in phantoms ([1]; listed as zinc pthalocyanine): strongest photoacoustic signal
Singlet Oxygen Quantum Yield (ϕΔ) [2]: 0.62 [23]
Fluorescence Quantum Yield (ϕF) [3]: 0.06 [23]
Concentration of drug in the blood [4]: 3.63 µM
tmax, time of peak concentrations ([6]; MIPs t=10 to 60 mins): 1 h
time to clearance ([6]; MSOT signal): ≤ 24 h
organ biodistribution of MSOT signal ([6]; liver, spleen, kidneys, intestines, tumor): strong in vivo MSOT signal of ZnPc was detected in the reticuloendothelial system (liver, spleen), intestines and tumor site within the first hour after injection; also recorded: high concentrations were found in the liver and intestines up to the 3-hour time point, whereas renal signal was much weaker in comparison
time of peak tumor-to-muscle ratio of MSOT signal ([6]; n=4): 1 h
time to localization at the tumor post injection ([6]; tumor bearing mice): ≤ 10 min
time of peak accumulation post injection [6]: 1 h
time of peak accumulation post injection ([6]; listed as zinc phthalocyanine): around 1 hour

C=CC1=C(C)c2cc3[nH]c(cc4nc(cc5[nH]c(cc1n2)c(C)c5CCC(=O)O)C(CCC(=O)O)=C4C)c(C)c3C=C [PpIX, protoporphyrin IX]
Concentration of drug in the blood [4]: 88.88 µM
